Experimental findings from US11325929B2 (VivaVisionShanghaiLtd, priority 2017, dated 2022) are described below.

One may read the EC50 as the concentration giving half of the maximal effect.

In the assay the test system is human T lymphocyte strain Jurkat (ATCC TIB-152) adhesion to ICAM-1. Briefly: T-cell adhesion assay (Jurkat cells on ICAM-1 coated plates). In kind it is cell-based. Particulars: Homo sapiens; BCECF-AM labelled Jurkat cells, ICAM-1 coated plate, fluorescence readout; read-out: EC50 of cell adhesion and inhibition. The protocol:
Cell Adhesion Inhibition Experiments:
T-cell adhesion assay was performed using human T lymphocyte strain Jurkat (ATCC TIB-152): goat Anti-Human IgG (Fc specific) (Sigma 18885) was diluted to 10 μg/ml in PBS, incubated 100 μL per well/96 well plate at 4° C. for 12 hours. Liquid in the well plate was poured off, blocked with 200 μL of 1% BSA at 37° C. for 90 minutes, and washed three times with PBS. 50 μL of 1 μg/mL ICAM-1 (containing 0.1% BSA, 0.01% Tween 20) was added to each well and incubated at 37° C. for 3 hours. The plate was washed 3 times with assay buffer (20 mM HEPES pH 7.6, 140 mM NaCl, 1 mM MgCl2, 1 mM MnCl2, 0.2% glucose).
The Jurkat […] was centrifuged at 100-G, and cells were resuspended in an assay buffer (20 mM HEPES pH 7.6, 140 mM NaCl, 1 mM MgCl2, 1 mM MnCl2, 0.2% glucose) at 37° C.
2 μl of 1 mM of BCECF-AM per mL of the cell suspension was added. Incubated at 37° C. for 30 minutes, stirred up every 10 minutes during the incubation. After the incubation, the cells were washed with assay buffer at 37° C. The cells were suspended to a concentration of 6×10^6/mL.
The inhibitor was diluted to a final concentration of 2× in assay buffer, and 50 μL of the compound solution and […] of Jurkat cells were mixed at room temperature, and incubated at 37° C. for 30 minutes. 100 μL/well of cells and inhibitors were added to the plate and incubated for 1 hour at room temperature. The total fluorescence was measured by a fluorometer: ex: 485; em: 530; cutoff: 530 to measure the total fluorescence. The plate was washed once with the assay buffer and the fluorescence was measured with a fluorometer: ex: 485; em: 530; cutoff. The results are plotted as inhibition-concentration plots and EC50 is calculated using standard methods.

With `CS(=O)(=O)c1cccc(C[C@H](NC(=O)c2c(Cl)cc(C#CP(=O)(O)c3ccc4ccoc4c3)cc2Cl)C(=O)O)c1` [Example 49], the concentration giving a half-maximal response (EC50) stood at 10.8 nM.
Consider `CS(=O)(=O)c1cccc(C[C@H](NC(=O)c2c(Cl)cc(C(O)CP(=O)(O)c3cccc(O)c3)cc2Cl)C(=O)O)c1` (stereo partly drawn) [Example 50, (2s)-2-(2,6-dichloro-4-(1-hydroxy 2-(hydroxy(3-hydroxyphenyl)phosphoryl)ethyl)benzamido)-3-(3-(methylsulfonyl)phenyl)propionic Acid], for which the EC50 amounted to 16 nM.
The value for `CS(=O)(=O)c1cccc(C[C@H](NC(=O)c2c(Cl)cc(/C=C/P(=O)(O)c3cccc(O)c3)cc2Cl)C(=O)O)c1` [Example 51, (2s)-2-(2,6-dichloro-4-(2-(hydroxy(m-hydroxyphenyl)phosphoryl)vinyl)benzamido)-3-(3-(methylsulfonyl)phenyl)propionic Acid] was 4.2 nM.
Under `CS(=O)(=O)c1cccc(C[C@H](NC(=O)c2c(Cl)cc(/C=C/P(=O)(c3cccc(O)c3)c3cccc(O)c3)cc2Cl)C(=O)O)c1` [Example 52, (S,E)-2-(4-(2-(bis(3-hydroxyphenyl)phosphonyl)vinyl)-2,6-dichlorobenzamido)-3-(3-(methylsulfonyl)phenyl)propionic Acid] stands 74 nM; under `CS(=O)(=O)c1cccc(C[C@H](NC(=O)c2c(Cl)cc(CCP(=O)(c3cccc(O)c3)c3cccc(O)c3)cc2Cl)C(=O)O)c1` [Example 53, (S,E)-2-(4-(2-(bis(3-hydroxyphenyl)phosphonyl)ethyl)-2,6-dichlorobenzamido)-3-(3-(methylsulfonyl)phenyl)propionic Acid], 22 nM; under `CCOP(=O)(/C=C/c1cc(Cl)c(C(=O)N[C@@H](Cc2cccc(S(C)(=O)=O)c2)C(=O)O)c(Cl)c1)c1ccc(O)cc1` (stereo partly drawn) [Example 54], 9.6 nM.
Under `CC(C)P(=O)(CCc1cc(Cl)c(C(=O)N[C@@H](Cc2cccc(S(C)(=O)=O)c2)C(=O)O)c(Cl)c1)c1cccc(O)c1` (stereo partly drawn) [Example 56] stands 63 nM.
In the case of `CS(=O)(=O)c1cccc(C[C@H](NC(=O)c2c(Cl)cc(/C=C/P(=O)(c3cccc(O)c3)C3CC3)cc2Cl)C(=O)O)c1` (stereo partly drawn) [Example 57], the concentration for a half-maximal effect (EC50) stood at 5.3 nM.
Under `CP(=O)(/C=C/c1cc(Cl)c(C(=O)N[C@@H](Cc2cccc(S(C)(=O)=O)c2)C(=O)O)c(Cl)c1)c1cccc(O)c1` (stereo partly drawn) [Example 58] stands 1.9 nM.
